Reference: patent publication US4256765A, “Novel hydroxamic acid compounds, method for preparation thereof and medicaments containing such compounds” (priority 1978, dated 1981)

Columns and labels:
[1] = Urinary excretion in rats; format: in vivo, SD strain male rats; settings: rat, po; 100 mg/Kg orally, SD male rats, urine excreted within 24 hours; read-out: Urinary excretion (%) (mean value ± S. E.)
Method: (2) Measurement of urinary excretion in rats
100 mg/Kg of the test compounds were administered orally to the SD strain male rats weighing about 300 g, and urine specimens excreted within 24 hours were collected by cross-over method. Amounts of the test compounds in urine were determined according to the method of Kobashi et al. [Refer to Yakugaku Zasshi 93 (12), 1564-1572 (1973); J. Biochem. 83, 287-293 (1973).]

Acute toxicity (LD50) = format: in vivo; settings: for acute toxicity (in words): rats; for LD50: rat, in vivo
Method: The test compounds were administered orally to SD strain male rats weighing about 270 g and SD strain female rats weighing about 170 g.

[2] = target: T1, Urease extracted and purified from sword bean (Canavalia gladiata, UniProt A0AAN9R4W0); experiment: Urease inhibitory activity (I50), method of Kobashi et al.; format: biochemical; settings: read-out: Urease-inhibitory activity I50
T1 construct: nickel homohexamer by analogy with jack bean urease
Method: (1) Measurement of urease inhibitory activity of test compounds
Urease was extracted and purified from sword bean and molar concentrations of the test compounds causing 50% inhibition of urease activity (I50) were determined by the method of Kobashi et al. [Refer to Biochim, Biophys. Acta 227, 429-441 (1971).]

[3] = test system: Salmonela typhimurium TA-98 and TA-100; experiment: Mutagenic activity in microbial tests; format: cell-based, Salmonella typhimurium
Method: The screening of mutagenicity was carried out according to Ames test [Refer to Ames B. N. et al.: Proc: Natl. Acad. Sci. U.S.A., 72, 979-983 (1975)] which is now widely utilized all over the world as an examination for detection of mutagenicity.
Using the strain of Salmonela typhimurium TA-98 and TA-100 as the test bacteria, the mutageic activity was examined for the test compounds untreated with S-9 (9,000×g supernatant fraction of the rat liver homogenate induced with PCB) and the test compounds treated with S-9, respectively. The examined concentration of the test compounds was up to 40,000 μg/ml. Dimethyl sulfoxide (DMSO) was used as solvent.
The result of examination was judged to be positive, when the number of reverse mutation colony was twice comparing with the control group and the positive correlation between dosage and mutagenic activity of the test compound was recognized.

[4] = clinical study of urolithiasis; cited from earlier work
Proteus mirabilis (OM-1) [5] = experiment: Inhibitory effect on alkalization of urine; format: cell-based; settings: for pH value (mean value ± S. E.) 8 hours after inoculation: normal human urine, Proteus mirabilis 2.75×10^5 cells/ml, 37° C.; for inhibition of the alkalization of urine (in words): Proteus mirabilis (OM-1) inoculated to normal human urine
Method: (§1) To 18 ml of normal human urine was added each test compound to make 10^-3 M and 2×10^-4 M test solution in a final concentration.
(§2) On the other hand, distilled water was added to 18 ml of normal human urine instead of the test compound to make a blank solution.
(§3) To the solution was inoculated intact Proteus mirabilis (OM-1) to make a cell suspension of 2.75×10^5 cells/ml and harvested at 37° C. Before inoculation and at 8 hours after inoculation, the pH values of the solution were measured.

Proteus mirabilis (OM-1) [6] = experiment: Inhibitory effect on calculus formation in urine; format: cell-based; settings: for inhibition of the calculus formation in urine (in words): Proteus mirabilis (OM-1) inoculated to normal human urine; for inhibition at 200 µM / inhibition at 1000 µM: Proteus mirabilis, 8 h, normal human urine, read-out: Inhibitory rate of calculus formation (%) (mean value ± S. E.) 8 hours after inoculation; for inhibition at 200 µM: 2 × 10^-4 M test compound; for inhibition at 1000 µM: 10^-3 M test compound
Method: as §1, §2, §3
Inhibitory rate of calculi formation was calculated by measuring the weight of formed calculi.

T1 sequence (A0AAN9R4W0 entry or part of it): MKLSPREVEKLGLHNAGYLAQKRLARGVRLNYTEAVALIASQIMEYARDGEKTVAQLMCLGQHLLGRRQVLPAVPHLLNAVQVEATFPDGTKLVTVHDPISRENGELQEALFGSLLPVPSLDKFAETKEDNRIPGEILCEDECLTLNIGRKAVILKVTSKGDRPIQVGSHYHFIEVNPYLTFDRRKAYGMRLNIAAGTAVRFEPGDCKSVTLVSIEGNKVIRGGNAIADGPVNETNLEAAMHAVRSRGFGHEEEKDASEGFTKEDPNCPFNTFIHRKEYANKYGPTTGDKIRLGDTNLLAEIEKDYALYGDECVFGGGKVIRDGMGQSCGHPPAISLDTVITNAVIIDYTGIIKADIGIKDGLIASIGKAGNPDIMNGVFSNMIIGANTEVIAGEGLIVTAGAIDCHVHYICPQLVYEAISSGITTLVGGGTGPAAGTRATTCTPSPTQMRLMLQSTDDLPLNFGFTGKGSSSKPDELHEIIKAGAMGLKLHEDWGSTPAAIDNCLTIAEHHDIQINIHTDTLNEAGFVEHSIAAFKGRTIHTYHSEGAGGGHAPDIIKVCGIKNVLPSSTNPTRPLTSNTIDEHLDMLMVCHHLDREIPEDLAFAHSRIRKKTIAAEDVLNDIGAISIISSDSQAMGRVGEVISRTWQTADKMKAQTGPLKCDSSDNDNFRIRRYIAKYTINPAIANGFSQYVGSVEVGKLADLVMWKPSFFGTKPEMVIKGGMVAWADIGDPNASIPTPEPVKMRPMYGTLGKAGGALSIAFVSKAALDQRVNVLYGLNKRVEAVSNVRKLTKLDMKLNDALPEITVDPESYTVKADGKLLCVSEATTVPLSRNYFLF

SMILES: CCC(C)C(=O)NCC(=O)NO (racemic) [Compound C, N-(DL-2-methyl-n-butyloyl)-glycinohydroxamic acid]
- dose excreted at 24 h [1]: 9.25 ± 2.16%
- acute toxicity (in words) (Acute toxicity (LD50); oral): low
- LD50 (Acute toxicity (LD50); oral, SD male and female rats): > 9000 mg/kg
- IC50 [2]: 1290 nM

SMILES: O=C(CNC(=O)c1ccco1)NO [2-(2-furoylamino)-acetohydroxamic acid]
- mutagenic activity (in words) [3]: show mutagenecity

SMILES: CC(=O)Nc1cccc(C(=O)NCC(=O)NO)c1 [2-(meta-acetylaminobenzamide)-acetohydroxamic acid]
- mutagenic activity (in words) [3]: show mutagenecity

SMILES: COc1cccc(C(=O)NCC(=O)NO)c1 [2-(meta-methoxybenzamide)-acetohydroxamic acid]
- mutagenic activity (in words) [3]: show mutagenecity

SMILES: COc1ccc(C(=O)NCC(=O)NO)cc1 [2-(para-methoxybenzamide)-acetohydroxamic acid]
- mutagenic activity (in words) [3]: show mutagenecity

SMILES: O=C(CNC(=O)c1ccc(Cl)cc1)NO [Benurestat, 2-(para-chlorobenzamide)-acetohydroxamic acid]
- mutagenic activity (in words) [3]: have the mutagenic activity

SMILES: CC(=O)NO [CH3 CONHOH, Acetohydroxamic acid]
- mutagenic activity (in words) [3]: have the mutagenic activity
- decreasing the amount of ammonia in urine and preventing the alkalization of urine (in words) [4]: effective

SMILES: CC(C)(C)C(=O)NCC(=O)NO [Compound A, N-(pivaloyl)-glycinohydroxamic acid]
- pH value (mean value ± S. E.) 8 hours after inoculation (Proteus mirabilis (OM-1) [5]; 2 × 10^-4 M test compound): 8.41 ± 0.007
- pH value (mean value ± S. E.) 8 hours after inoculation (Proteus mirabilis (OM-1) [5]; 10^-3 M test compound): 7.33 ± 0.09
- inhibition of the alkalization of urine (in words) (Proteus mirabilis (OM-1) [5]): inhibited the alkalization of urine
- dose excreted at 24 h [1]: 14.6 ± 1.82%
- acute toxicity (in words) (Acute toxicity (LD50); oral): low
- LD50 (Acute toxicity (LD50); oral, SD male and female rats): > 9000 mg/kg
- IC50 [2]: 4380 nM
- inhibition of the calculus formation in urine (in words) (Proteus mirabilis (OM-1) [6]): inhibited
- inhibition at 200 µM (Proteus mirabilis (OM-1) [6]): 50 ± 5.2%
- inhibition at 1000 µM (Proteus mirabilis (OM-1) [6]): 82 ± 8.2%

SMILES: CCC(CC)C(=O)NCC(=O)NO [Compound B, N-(2-ethyl-n-butyloyl)-glycinohydroxamic acid]
- pH value (mean value ± S. E.) 8 hours after inoculation (Proteus mirabilis (OM-1) [5]; 2 × 10^-4 M test compound): 7.24 ± 0.04
- pH value (mean value ± S. E.) 8 hours after inoculation (Proteus mirabilis (OM-1) [5]; 10^-3 M test compound): 6.14 ± 0.01
- inhibition of the alkalization of urine (in words) (Proteus mirabilis (OM-1) [5]): inhibited the alkalization of urine
- dose excreted at 24 h [1]: 5.37 ± 0.852%
- acute toxicity (in words) (Acute toxicity (LD50); oral): low
- LD50 (Acute toxicity (LD50); po): > 9000 mg/kg
- IC50 [2]: 790 nM
- inhibition of the calculus formation in urine (in words) (Proteus mirabilis (OM-1) [6]): inhibited
- inhibition at 200 µM (Proteus mirabilis (OM-1) [6]): 93.7 ± 1.6%
- inhibition at 1000 µM (Proteus mirabilis (OM-1) [6]): 95.7%
